Results published in ChEMBL document CHEMBL4400546, “A Cinchona Alkaloid Antibiotic That Appears To Target ATP Synthase in Streptococcus pneumoniae” (J Med Chem, 2019).
Converted amounts (≈) assume the structure as drawn.

Experiments:
[1] = Cytotoxicity against human HepG2 cells assessed as reduction in cell viability after 48 hrs by Alamar Blue assay; format: cell-based
[2] = test system: Streptococcus pneumoniae; assay: Antibacterial activity against Streptococcus pneumoniae D39 after 20 hrs by CLSI-based microdilution method; format: functional; conditions: D39, 20 h
[3] = Drug level in ICR mouse liver microsomes treated with 6-Cyclobutoxy-(R)-4-[((1S,2S,4S,5Z)-5-ethylidene-1-azabicyclo-[2.2.2]octan-2-yl)hydroxymethyl]quinoline at 10 uM preincubated with NADPH for 10 mins and measured after 90 mins by LC-MS/MS analysis; format: ADME, Microsome; conditions: 1.5 h
[4] = Drug level in ICR mouse liver microsomes treated with 6-Cyclobutoxy-(R)-4-[((1S,2S,4S,5E)-5-ethylidene-1-azabicyclo[2.2.2]octan-2-yl)hydroxymethyl]quinoline at 10 uM preincubated with NADPH for 10 mins and measured after 90 mins by LC-MS/MS analysis; format: ADME, Microsome; conditions: 1.5 h

CCCOc1ccc2nccc([C@@H](O)[C@@H]3C[C@@H]4CC[N@@]3C[C@@H]4CC)c2c1
CC50 at 48 h [1]: 57 µM
MIC [2]: 11 µM (≈ 3.9 µg/mL)

CC=C1C[N@]2CC[C@H]1C[C@H]2[C@@H](F)c1ccnc2ccc(OC)cc12
CC50 at 48 h [1]: > 100 µM
MIC [2]: > 392 µM

COc1ccc2nccc([C@@H](O)[C@@H]3C[C@@H]4CC[N@@]3C/C4=N/OC3CCCC3)c2c1
CC50 at 48 h [1]: > 100 µM
MIC [2]: 40 to 81 µM (≈ 15.8 to 32 µg/mL)

CON=C1C[N@]2CC[C@H]1C[C@H]2[C@H](O)c1ccnc2ccc(OC)cc12
CC50 at 48 h [1]: > 100 µM
MIC [2]: 375 to 750 µM (≈ 128 to 256 µg/mL)

CC=C1C[N@]2CC[C@H]1C[C@H]2[C@H](O)c1ccnc2ccc(OCc3ccccc3)cc12
CC50 at 48 h [1]: 47 µM
MIC [2]: 40 µM (≈ 16 µg/mL)

C/C=C1\C[N@]2CC[C@H]1C[C@H]2[C@H](O)c1ccnc2ccc(O[C@H]3O[C@H](C(=O)O)[C@@H](O)[C@H](O)[C@H]3O)cc12
Drug uptake [3]: Active
Drug uptake [4]: Active

CC=C1C[N@]2CC[C@H]1C[C@H]2[C@H](O)c1ccnc2ccc(OC(C)CO)cc12 (mixture of isomers)
CC50 at 48 h [1]: > 100 µM
MIC [2]: 5 µM

OC/C=C1\C[N@]2CC[C@H]1C[C@H]2[C@H](O)c1ccnc2ccc(OC3CCC3)cc12
Drug uptake [3]: Active
Drug uptake [4]: Active

COC(=O)CCCON=C1C[N@]2CC[C@H]1C[C@H]2[C@H](O)c1ccnc2ccc(OC)cc12
CC50 at 48 h [1]: > 100 µM
MIC [2]: 299 µM (≈ 128 µg/mL)

CCCCOc1ccc2nccc([C@@H](O)[C@@H]3C[C@@H]4CC[N@@]3C[C@@H]4CC)c2c1
CC50 at 48 h [1]: 41 µM
MIC [2]: 22 µM (≈ 8.11 µg/mL)

CC=C1C[N@]2CC[C@H]1C[C@H]2[C@H](O)c1ccnc2ccc(OCCC)cc12
CC50 at 48 h [1]: 51 µM
MIC [2]: 3 to 6 µM (≈ 1.06 to 2.11 µg/mL)

CC=C1C[N@]2CC[C@H]1C[C@H]2[C@H](O)c1ccnc2ccc(OC(C)C)cc12
CC50 at 48 h [1]: 54 µM
MIC [2]: 1 µM (≈ 0.352 µg/mL)

CC=C1C[N@]2CC[C@H]1C[C@H]2[C@H](O)c1ccnc2ccc(OCC3CC3)cc12
CC50 at 48 h [1]: > 100 µM
MIC [2]: 5 µM (≈ 1.82 µg/mL)

C=CCOc1ccc2nccc([C@@H](O)[C@@H]3C[C@@H]4CC[N@@]3C[C@@H]4CC)c2c1
CC50 at 48 h [1]: 78 µM
MIC [2]: 11 to 22 µM (≈ 3.88 to 7.75 µg/mL)

COc1ccc2nccc([C@@H](O)[C@@H]3C[C@@H]4CC[N@@]3CC4=NOCc3ccccc3)c2c1
CC50 at 48 h [1]: > 100 µM
MIC [2]: 77 µM (≈ 32.1 µg/mL)

CC=C1C[N@]2CC[C@H]1C[C@H]2[C@H](O)c1ccnc2ccc(OC)cc12
CC50 at 48 h [1]: > 100 µM
MIC [2]: 12 µM (≈ 3.89 µg/mL)

COc1ccc2nccc([C@@H](O)[C@@H]3C[C@@H]4CC[N@@]3CC4=NOCC(F)(F)F)c2c1
CC50 at 48 h [1]: > 100 µM
MIC [2]: > 313 µM

CC[C@H]1C[N@]2CC[C@H]1C[C@H]2[C@H](O)c1ccnc2ccc(OC3CCCC3)cc12
CC50 at 48 h [1]: > 100 µM
MIC [2]: 5 µM (≈ 1.9 µg/mL)

COc1ccc2nccc([C@@H](O)[C@@H]3C[C@@H]4CC[N@@]3C/C4=N/OCC3CC3)c2c1
CC50 at 48 h [1]: > 100 µM
MIC [2]: 42 to 84 µM (≈ 16 to 32 µg/mL)

O=C(c1ccnc2ccc(OC3CCC3)cc12)[C@@H]1C[C@@H]2CC[N@@]1C/C2=C\CO
Drug uptake [3]: Active
Drug uptake [4]: Active

C/C=C1\C[N@]2CC[C@H]1C[C@H]2C(=O)c1ccnc2ccc(O)cc12
Drug uptake [3]: Active
Drug uptake [4]: Active

CC[C@H]1CN2CC[C@H]1C[C@H]2[C@H](O)c1ccnc2ccc(O)cc12
CC50 at 48 h [1]: > 100 µM
MIC [2]: 204 µM (≈ 63.7 µg/mL)

C=CCON=C1C[N@]2CC[C@H]1C[C@H]2[C@H](O)c1ccnc2ccc(OC)cc12
CC50 at 48 h [1]: 51 µM
MIC [2]: 174 µM (≈ 63.9 µg/mL)

C#CCON=C1C[N@]2CC[C@H]1C[C@H]2[C@H](O)c1ccnc2ccc(OC)cc12
CC50 at 48 h [1]: > 100 µM
MIC [2]: 175 µM (≈ 64 µg/mL)

C=CCOc1ccc2nccc([C@@H](O)[C@@H]3C[C@@H]4CC[N@@]3CC4=CC)c2c1
CC50 at 48 h [1]: 54 µM
MIC [2]: 4 µM (≈ 1.4 µg/mL)

CCCCON=C1C[N@]2CC[C@H]1C[C@H]2[C@H](O)c1ccnc2ccc(OC)cc12
CC50 at 48 h [1]: > 100 µM
MIC [2]: 21 to 42 µM (≈ 8.05 to 16.1 µg/mL)
